Assay results as given in patent publication US6518262B1, “22R-hydroxycholesta-8, 14-diene derivatives for the inhibition of meiosis” (Akzo Nobel N.V., priority 1999, dated 2003).

Key:
denuded oocytes (DO) = assay: Oocyte assay, agonistic testing, denuded oocytes (DO assay); assay type: cell-based, mice (B6D2-F1, strain C57BL×DBA); conditions: hypoxanthine medium, 22 hours culture, control value in brackets
Excerpt: (§1) Oocytes arrested in meiosis contain diffused chromosomes which are surrounded by an intact nuclear envelope known as the germinal vesicle (GV). Upon reinitiation of meiosis by the midcycle gonadotropin surge, the chromosomes recondense and the GV breaks down (GVBD). In vivo, the oocyte is exposed to hypoxanthine (HX), which maintains the oocyte arrested in the meiotic prophase. This meiotic arrest can be mimicked in vitro by addition of hypoxanthine to the culture medium. The agonistic activity of meiosis activating substances is measured as the ability to overcome the hypoxanthine maintained meiotic arrest in denuded oocytes (DO) or cumulus enclosed oocytes (CEO), i.e. as the ability to induce meiotic resumption in vitro.
(§2) Ovaries are obtained from immature female mice (B6D2-F1, strain C57BL×DBA). At the age of 19, 20 or 21 days the mice are injected subcutaneously with a single dose of 20 IU follicle stimulating hormone (Humegon, Organon, The Netherlands) in saline.
Forty-eight hours after follicle stimulating hormone injection mice are killed by cervical dislocation. The ovaries are removed, freed of extraneous tissue and placed in a multidish containing 0.5 ml preparation medium at 37° C. L-15 Leibovitz medium (Gibco, pH 7.3±0.1) supplemented with bovine serum albumin (3 mg·ml^−1), L-glutamine (0.23 mM), sodium pyruvate (2 mM) and hypoxanthine (4 mM) is used as preparation medium. The antral follicles of the ovaries are punctured under a dissecting microscope using two 27-gauge needles attached to two 1 ml syringes. Cumulus enclosed oocytes (CEO) of uniform size are selected with a mouth-controlled pipette and rinsed in 0.5 ml fresh preparation medium. About 20 CEO are obtained from one ovary.
Oocytes freed from cumulus cells, i.e. denuded oocytes (DO), are obtained by gently flushing CEO through a fine-bore mouth-controlled pipette. DO were collected in fresh MEM alpha medium, containing bovine serum albumin (3 mg·ml^−1), L-glutamine (0.23 mM), sodium pyruvate (2 mM) and hypoxanthine (4 mM), and washed twice before transfer to the test medium.
(§3) The oocyte assay is performed in 3 blocks, each block represents the ovaries of one mouse (randomized block design). […] At t=0 the number of oocytes with intact germinal vesicles (GV) or germinal vesicle break-down (GVBD) is counted under an inverted microscope with differential interference contrast equipment. […] At the end of the culture period the number of oocytes with GV or GVBD per group is counted. For statistical analysis the percentage germinal vesicle breakdown is calculated for each group in one block. These percentages are subjected to arcsin transformation, and differences between control and test compounds are analyzed by an ANOVA test for a randomized block design. […]

[1] = test system: cumulus enclosed oocytes (CEO); assay: Oocyte assay, agonistic testing, cumulus enclosed oocytes (CEO assay); assay type: cell-based, mice (B6D2-F1, strain C57BL×DBA); conditions: hypoxanthine medium, 22 hours culture, control value in brackets
Excerpt: as §1, §2
Forty-eight hours after follicle stimulating hormone injection mice are killed by cervical dislocation. The ovaries are removed, freed of extraneous tissue and placed in a multidish containing 0.5 ml preparation medium at 37° C. L-15 Leibovitz medium (Gibco, pH 7.3±0.1) supplemented with bovine serum albumin (3 mg·ml^−1), L-glutamine (0.23 mM), sodium pyruvate (2 mM) and hypoxanthine (4 mM) is used as preparation medium. […]
as §3

[2] = test system: cultured cumulus enclosed and naked mouse oocytes; conditions: cited from earlier work

CC(C)=CC[C@H](O)[C@@H](C)[C@H]1CC=C2C3=C(CC[C@@]21C)[C@@]1(C)CC[C@H](O)C(C)(C)[C@@H]1CC3 [22S-hydroxy-FF-Mas, (3β,5α,20S,22S)-4,4-dimethylcholesta-8,14,24-triene-3,22-diol]
% GVBD DO assay exp. (denuded oocytes (DO); compound 5 μM): 97(2) %
% GVBD CEO assay exp. ([1]; compound 5 μM): 73(2) %

CC(C)=CCC[C@@H](C)[C@H]1CC=C2C3=C(CC[C@@]21C)[C@@]1(C)CC[C@H](O)C(C)(C)[C@@H]1CC3 [FF-Mas, (3β,5α,20R)-4,4-dimethylcholesta-8,14,24-trien-3-ol]
% GVBD DO assay exp. (denuded oocytes (DO); compound 10 μM): 84(7) %
% GVBD CEO assay exp. ([1]; compound 10 μM): 0(0) %
activation of the resumption of meiosis [2]: able to activate the resumption of meiosis

CC(C)=CCC[C@@H](C)[C@H]1CC[C@H]2C3=C(CC[C@]12C)[C@@]1(C)CC[C@H](O)C(C)(C)[C@@H]1CC3 [(3β,5α,20R)-4,4-dimethylcholesta-8,24-dien-3-ol]
activation of the resumption of meiosis [2]: able to activate the resumption of meiosis
